Experimental data published in ChEMBL document CHEMBL1128870, “Synthesis and anti-HIV activities of 2-deoxy-2,2-difluoro--L-ribofuranosyl-pyrimidine and -purine nucleosides” (Bioorg Med Chem Lett, 1995).

Key:
Vero = test: Cytotoxic activity against HIV-1 in rapidly dividing vero cells; type: functional, cell-based; conditions: Chlorocebus sabaeus
[1] = Cytotoxic activity against HIV-1 in peripheral blood mononuclear (PBM) cells; type: functional; conditions: Homo sapiens
[2] = In vitro anti-HIV activity against HIV-1 in human peripheral blood mononuclear (PBM) cells; type: functional

SMILES | IC50 (Vero) | IC50 [1] | EC50 [2]
CC(C)(C)[Si](C)(C)OC1[C@H](CO)O[C@H](n2ccc(N)nc2=O)C1(F)F (single isomer, unassigned) | > 100 µM | > 100 µM | > 100 µM
CC(C)(C)[Si](C)(C)OC1[C@H](CO)O[C@@H](n2ccc(N)nc2=O)C1(F)F (single isomer, unassigned) | > 100 µM | > 100 µM | > 100 µM
Nc1ncnc2c1ncn2[C@@H]1O[C@@H](CO)C(O)C1(F)F (single isomer, unassigned) | > 100 µM | > 100 µM | > 100 µM
Nc1ncnc2c1ncn2[C@H]1O[C@@H](CO)C(O)C1(F)F (single isomer, unassigned) | > 100 µM | > 100 µM | 3.4 µM
Cc1cn([C@H]2O[C@@H](CO)C(O[Si](C)(C)C(C)(C)C)C2(F)F)c(=O)[nH]c1=O (single isomer, unassigned) | > 100 µM | > 100 µM | > 100 µM
Cc1cn([C@@H]2O[C@@H](CO)C(O[Si](C)(C)C(C)(C)C)C2(F)F)c(=O)[nH]c1=O (single isomer, unassigned) | > 100 µM | > 100 µM | > 100 µM
Cc1cn([C@H]2C[C@H](N=[N+]=[N-])[C@@H](CO)O2)c(=O)[nH]c1=O [ZIDOVUDINE] |  | > 100 µM | 0.004 µM
